Test results from US20200010479A1, “INHIBITORS OF MICROBIAL BETA-GLUCURONIDASE ENZYMES AND USES THEREOF” (THE UNIVERSITY OF NORTH CAROLINA AT CHAPEL HILL, priority 2017, published 2020).

Columns and labels:
E. coli GUS = E. coli GUS (Escherichia coli, UniProt P05804); assay: In vitro EcGUS inhibition, cleavage of PNPG by purified E. coli GUS; format: biochemical; conditions: PNPG substrate, 37° C., 2 hours
Description: To assess GUS inhibition, cleavage of p-nitrophenyl-β-D-glucuronide (PNPG) by purified E. coli GUS in the presence of inhibitor was measured. The reaction was performed in 96-well clear-bottom plates at a volume of 50 μL. Each reaction contained 5 μL of 100 nM E. coli GUS, 5 μL of inhibitor at various concentrations, 10 μL of 250 mM HEPES and 250 mM NaCl assay buffer, and 30 μL of 1.5 mM PNPG. The reaction was initiated by addition of PNPG and incubated at 37° C. for 2 hours. End point absorbance values at 410 nm were measured using a PHERAstar Plus microplate reader. The resulting data were fit with a four-parameter logistic log function in SigmaPlot 13.0 to determine IC50 values. IC50 was defined as the concentration of inhibitor that yields a 50% reduction in product formation at equilibrium.

[1] = system: panel of purified GUS enzymes present in the human gut microbiota; assay: SN-38-G processing by panel of purified GUS enzymes, with inhibitors; format: biochemical; conditions: enzymes other than E. coli GUS
[2] = system: gut microbial GUS enzymes; conditions: co-treatment with irinotecan; cited from earlier work
[3] = rats; cited from earlier work
[4] = system: bacteria cultured in vitro; conditions: cited from earlier work
[5] = system: GUS activity in human fecal extracts; conditions: cited from earlier work

Chain of E. coli GUS (P05804 whole entry): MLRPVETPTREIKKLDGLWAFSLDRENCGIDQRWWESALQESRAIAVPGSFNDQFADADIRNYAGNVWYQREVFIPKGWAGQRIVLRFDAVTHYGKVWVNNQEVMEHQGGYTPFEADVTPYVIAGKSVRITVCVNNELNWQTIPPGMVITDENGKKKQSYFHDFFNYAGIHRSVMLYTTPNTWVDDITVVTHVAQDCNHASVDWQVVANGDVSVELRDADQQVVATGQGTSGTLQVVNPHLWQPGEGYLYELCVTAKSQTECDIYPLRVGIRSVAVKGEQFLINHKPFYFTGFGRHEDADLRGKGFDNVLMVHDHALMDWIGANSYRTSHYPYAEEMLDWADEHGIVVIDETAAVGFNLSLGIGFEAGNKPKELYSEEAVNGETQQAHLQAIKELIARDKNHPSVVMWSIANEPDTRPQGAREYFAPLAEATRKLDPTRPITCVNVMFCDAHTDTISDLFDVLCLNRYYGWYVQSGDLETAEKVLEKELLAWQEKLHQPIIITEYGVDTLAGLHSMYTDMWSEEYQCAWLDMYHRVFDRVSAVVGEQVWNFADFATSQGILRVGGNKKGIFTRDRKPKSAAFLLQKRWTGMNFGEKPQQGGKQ

CN1CCN(c2nnnc3c2sc2nc(N4CCOCC4)c4c(c23)CCCC4)CC1 [Compound 2]
IC50 (E. coli GUS): 37600 ± 700 nM

C1CCc2c(c(N3CCOCC3)nc3sc4c(NC5CCNCC5)nnnc4c23)C1 [Compound 4]
IC50 (E. coli GUS): 30000 ± 10000 nM

C1CCc2c(c(N3CCOCC3)nc3sc4c(N5CC6CC5CN6)nnnc4c23)C1 (centres unmarked) [Compound 5]
IC50 (E. coli GUS): 9000 ± 2000 nM

C[C@@H]1CN(c2nnnc3c2sc2nc(N4CCOCC4)c4c(c23)CCCC4)CCN1 [Compound 6]
IC50 (E. coli GUS): 2400 ± 400 nM

C[C@H]1CN(c2nnnc3c2sc2nc(N4CCOCC4)c4c(c23)CCCC4)CCN1 [Compound 7]
IC50 (E. coli GUS): 2400 ± 300 nM

C1CCc2c(c(N3CCOCC3)nc3sc4c(N5CCCNCC5)nnnc4c23)C1 [Compound 8]
IC50 (E. coli GUS): 9000 ± 2000 nM

NCCNc1nnnc2c1sc1nc(N3CCOCC3)c3c(c12)CCCC3 [Compound 9]
IC50 (E. coli GUS): 5600 ± 500 nM

C1CCc2c(c(N3CCNCC3)nc3sc4c(N5CCNCC5)nnnc4c23)C1 [Compound 12]
IC50 (E. coli GUS): 130 ± 10 nM

C1CCN(c2nc3sc4c(N5CCNCC5)nnnc4c3c3c2CCCC3)CC1 [Compound 13]
IC50 (E. coli GUS): 500 ± 200 nM

C1CCC(Nc2nc3sc4c(N5CCNCC5)nnnc4c3c3c2CCCC3)CC1 [Compound 14]
IC50 (E. coli GUS): 800 ± 200 nM

CN(C)c1nc2sc3c(N4CCNCC4)nnnc3c2c2c1CCCC2 [Compound 15]
IC50 (E. coli GUS): 130 ± 10 nM

c1ccc(CNc2nc3sc4c(N5CCNCC5)nnnc4c3c3c2CCCC3)cc1 [Compound 17]
IC50 (E. coli GUS): 190 ± 40 nM

c1cc2c(nc1N1CCOCC1)sc1c(N3CCNCC3)nnnc12 [Compound 19]
IC50 (E. coli GUS): 170 ± 40 nM

CNc1nc(N2CCNCC2)c2sc3nc(N4CCOCC4)ccc3c2n1 [Compound 21]
IC50 (E. coli GUS): 100 ± 20 nM

c1ccc(-c2ccc3c(n2)sc2c(N4CCNCC4)nnnc23)cc1 [Compound 22]
IC50 (E. coli GUS): 150 ± 50 nM

c1ccc(-c2ccc3c(n2)sc2c(N4CCNCC4)ncnc23)cc1 [Compound 23]
IC50 (E. coli GUS): 130 ± 30 nM

CNc1nc(N2CCNCC2)c2sc3nc(-c4ccccc4)ccc3c2n1 [Compound 24]
IC50 (E. coli GUS): 180 ± 90 nM

CN(C)c1nc(N2CCNCC2)c2sc3nc(-c4ccccc4)ccc3c2n1 [Compound 25]
IC50 (E. coli GUS): 190 ± 90 nM

OCCNc1nc(N2CCNCC2)c2sc3nc(-c4ccccc4)ccc3c2n1 [Compound 26]
IC50 (E. coli GUS): 120 ± 20 nM

CN(C)c1ccc2c(n1)sc1c(N3CCNCC3)nnnc12 [Compound 27]
IC50 (E. coli GUS): 80 ± 30 nM

CNc1nc(N2CCNCC2)c2sc3nc(N(C)C)ccc3c2n1 [Compound 28]
IC50 (E. coli GUS): 42 ± 6 nM

CNc1ccc2c(n1)sc1c(N3CCNCC3)nc(NC)nc12 [Compound 29]
IC50 (E. coli GUS): 40 ± 8 nM

c1cnc2sc3c(N4CCNCC4)ncnc3c2c1 [Compound 30]
IC50 (E. coli GUS): 80 ± 20 nM

CNc1nc(N2CCNCC2)c2sc3ncccc3c2n1 [Compound 31]
IC50 (E. coli GUS): 36 ± 2 nM

CCOc1ccc(NC(=S)N(CCO)Cc2cc3cc(C)cc(C)c3[nH]c2=O)cc1 [Inh1]
effects on other GUS enzymes, including others from the L1 category [1]: weak effects
gut toxicity and diarrhea [2]: alleviated gut toxicity and diarrhea
NSAID-induced intestinal anastomosis after surgical resection [3]: reduce NSAID-induced intestinal anastomosis

Clc1ccc2c(c1)C(N1CCNCC1)=Nc1ccccc1O2 [amoxapine]
viability of bacteria cultured in vitro [4]: reduced the viability
block of GUS activity in human fecal extracts [5]: incompletely blocks
